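Exposure lasted 48 hours, with cells grown in 96-well plates and compounds tested at five concentrations. Here, GI50 denotes the concentration required for 50% inhibition of growth.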 Active and inactive are the calls of the source. Cut-off read from the data, not from the text of the source: active = GI50 up to about 1.1 µM and inactive = higher.
Legend:
Assay in all cases: DTP human tumour cell line panel, 48 h
SF-268 = tested on: SF-268
HOP-62 = tested on: HOP-62
M14 = tested on: M14
NCI-H460 = tested on: NCI-H460
SK-MEL-5 = tested on: SK-MEL-5
UACC-257 = tested on: UACC-257
NCI-H522 = tested on: NCI-H522
A549 = tested on: A549
SNB-75 = tested on: SNB-75
OVCAR-3 = tested on: OVCAR-3
MDA-MB-435 = tested on: MDA-MB-435
RXF 393 = tested on: RXF 393
SK-OV-3 = tested on: SK-OV-3
SW-620 = tested on: SW-620
RPMI-8226 = tested on: RPMI-8226
KM12 = tested on: KM12
ACHN = tested on: ACHN
CAKI-1 = tested on: CAKI-1
SF-295 = tested on: SF-295
NCI-H226 = tested on: NCI-H226

Measured: GI50

Clc1cccc(Cl)c1C(Nc1nncs1)Nc1nncs1
inactive: SF-268 81.7 µM | HOP-62 50.4 µM | M14 36.2 µM | NCI-H460 25 µM | SK-MEL-5 32.5 µM | UACC-257 18.2 µM | NCI-H522 22.3 µM | A549 48.9 µM | SNB-75 > 100 µM | OVCAR-3 46.7 µM | MDA-MB-435 11.1 µM | RXF 393 33.5 µM | SK-OV-3 32 µM | SW-620 20.7 µM | RPMI-8226 46 µM | KM12 27.7 µM | ACHN 73.6 µM | CAKI-1 75.3 µM | SF-295 38.2 µM | NCI-H226 26.9 µM

C=CC(Br)(CBr)CCC(Br)C(C)C (stereo unspecified)
inactive: SF-268 5.48 µM | HOP-62 3.18 µM | M14 4.16 µM | NCI-H460 4.71 µM | SK-MEL-5 5.24 µM | UACC-257 8.18 µM | NCI-H522 1.49 µM | A549 14.1 µM | SNB-75 1.95 µM | OVCAR-3 4.5 µM | MDA-MB-435 5.21 µM | RXF 393 5.89 µM | SK-OV-3 16.6 µM | SW-620 2.2 µM | RPMI-8226 1.25 µM | KM12 2.18 µM | ACHN 8.15 µM | CAKI-1 6.58 µM | SF-295 4.26 µM | NCI-H226 16.6 µM

CC12c3c4ccc(C=O)c3Oc3ccc(C=O)c(c31)Oc1ccc(C=O)c(c12)O4
inactive: SF-268 > 25 µM | HOP-62 > 25 µM | M14 > 25 µM | NCI-H460 > 25 µM | UACC-257 > 25 µM | NCI-H522 > 25 µM | A549 > 25 µM | SNB-75 > 25 µM | OVCAR-3 > 25 µM | MDA-MB-435 > 25 µM | RXF 393 > 25 µM | SK-OV-3 > 25 µM | SW-620 > 25 µM | RPMI-8226 > 25 µM | KM12 > 25 µM | ACHN > 25 µM | CAKI-1 > 25 µM | SF-295 > 25 µM | NCI-H226 > 25 µM

CN/N=C(/CCN1CCCC1)CC(c1ccccc1)c1c(O)c2ccccc2oc1=O (stereo unspecified)
inactive: SF-268 > 100 µM | HOP-62 > 100 µM | M14 > 100 µM | NCI-H460 > 100 µM | SK-MEL-5 > 75.5 µM | UACC-257 > 100 µM | NCI-H522 > 100 µM | A549 > 100 µM | SNB-75 19.4 µM | OVCAR-3 > 100 µM | MDA-MB-435 > 100 µM | RXF 393 > 100 µM | SK-OV-3 > 100 µM | SW-620 > 100 µM | RPMI-8226 25.5 µM | KM12 > 100 µM | ACHN > 100 µM | CAKI-1 > 100 µM | SF-295 > 100 µM | NCI-H226 > 65.6 µM

COC(=O)[C@@H]1CN(C(=O)c2ccccc2)C(=O)N1C(=O)OCc1ccccc1
inactive: SF-268 > 100 µM | HOP-62 > 100 µM | M14 > 100 µM | NCI-H460 > 100 µM | SK-MEL-5 > 100 µM | UACC-257 > 100 µM | NCI-H522 > 100 µM | A549 > 100 µM | SNB-75 > 100 µM | OVCAR-3 > 100 µM | MDA-MB-435 > 100 µM | RXF 393 > 100 µM | SK-OV-3 > 100 µM | SW-620 > 100 µM | RPMI-8226 > 100 µM | KM12 > 100 µM | ACHN > 100 µM | CAKI-1 > 100 µM | SF-295 > 100 µM | NCI-H226 > 100 µM

Cc1ccc(NC(=O)/C(Cc2cc(=O)oc3cc(O)ccc23)=N\NC(=O)C[N+](C)(C)C)cc1C
inactive: SF-268 > 100 µM | HOP-62 > 100 µM | M14 > 100 µM | NCI-H460 > 100 µM | SK-MEL-5 > 100 µM | UACC-257 > 100 µM | NCI-H522 > 100 µM | A549 > 100 µM | SNB-75 > 100 µM | OVCAR-3 > 100 µM | MDA-MB-435 > 100 µM | RXF 393 66.2 µM | SK-OV-3 > 100 µM | SW-620 > 100 µM | RPMI-8226 > 100 µM | KM12 > 100 µM | ACHN > 100 µM | CAKI-1 > 100 µM | SF-295 > 100 µM | NCI-H226 > 100 µM

CCOC(=O)CC1C(O)C(=O)N(C)C1c1ccccc1 (stereo unspecified)
inactive: SF-268 > 100 µM | HOP-62 > 100 µM | M14 > 100 µM | SK-MEL-5 > 100 µM | UACC-257 > 100 µM | NCI-H522 > 100 µM | A549 > 100 µM | SNB-75 > 100 µM | OVCAR-3 > 100 µM | MDA-MB-435 > 100 µM | RXF 393 > 100 µM | SK-OV-3 > 100 µM | SW-620 > 100 µM | RPMI-8226 > 100 µM | KM12 > 100 µM | ACHN > 100 µM | CAKI-1 > 100 µM | SF-295 > 100 µM | NCI-H226 > 100 µM

CC(=O)OCC1OC(N2C(S)=C(C#N)C(c3ccco3)C(C(C)=O)=C2c2ccccc2)C(OC(C)=O)C(OC(C)=O)C1OC(C)=O (stereo unspecified)
inactive: SF-268 > 100 µM | HOP-62 16.9 µM | M14 94.6 µM | NCI-H460 > 100 µM | SK-MEL-5 29 µM | UACC-257 > 100 µM | NCI-H522 32.1 µM | A549 49.4 µM | SNB-75 8.49 µM | OVCAR-3 77.6 µM | MDA-MB-435 > 100 µM | RXF 393 > 100 µM | SW-620 89.9 µM | RPMI-8226 95.9 µM | KM12 > 100 µM | ACHN > 10 µM | CAKI-1 40.9 µM | SF-295 23.4 µM | NCI-H226 > 100 µM

O=C1CCc2nc3ncccc3cc2C1
inactive: SF-268 51.8 µM | HOP-62 > 100 µM | M14 > 100 µM | NCI-H460 99.5 µM | SK-MEL-5 > 100 µM | UACC-257 > 100 µM | NCI-H522 22.2 µM | A549 > 100 µM | SNB-75 > 100 µM | OVCAR-3 47.2 µM | MDA-MB-435 44 µM | RXF 393 > 100 µM | SK-OV-3 > 100 µM | SW-620 54.8 µM | RPMI-8226 64.1 µM | ACHN > 100 µM | CAKI-1 > 100 µM | SF-295 > 100 µM | NCI-H226 > 100 µM

Cc1ccc(C(=O)Nc2ccc(CP(=O)(O)O)cc2CP(=O)(O)O)cc1NC(=O)c1cccc(NC(=O)Nc2cccc(C(=O)Nc3cc(C(=O)Nc4ccc(CP(=O)(O)O)cc4CP(=O)(O)O)ccc3C)c2)c1
inactive: SF-268 > 100 µM | HOP-62 > 100 µM | M14 > 100 µM | NCI-H460 > 100 µM | SK-MEL-5 > 100 µM | UACC-257 > 100 µM | NCI-H522 > 100 µM | A549 > 100 µM | SNB-75 > 100 µM | OVCAR-3 > 100 µM | MDA-MB-435 > 100 µM | RXF 393 > 100 µM | SK-OV-3 > 100 µM | SW-620 41.8 µM | RPMI-8226 > 100 µM | KM12 > 100 µM | ACHN > 100 µM | CAKI-1 > 100 µM | SF-295 > 100 µM | NCI-H226 > 100 µM

— ChEMBL document CHEMBL1201862, “PubChem BioAssay data set” (2004)
